Values belong to the molecule of their own block, whether it stands above or below them.
Columns and labels:
[1] = molecular target: T1, 3,6-DKCMO (Pseudomonas putida, UniProt D7UER1); experiment: […] min biotransformation with FMNH2 supplied by purified flavin reductases, GC; type: biochemical; conditions: FMNH2 cosubstrate generated in situ from FMN and NADH, 1 mM ketone, pH 7.6, 25 °C
T1 construct: gene camE36; natively purified biooxygenating subunit, untagged
T1 sequence (D7UER1 1-378): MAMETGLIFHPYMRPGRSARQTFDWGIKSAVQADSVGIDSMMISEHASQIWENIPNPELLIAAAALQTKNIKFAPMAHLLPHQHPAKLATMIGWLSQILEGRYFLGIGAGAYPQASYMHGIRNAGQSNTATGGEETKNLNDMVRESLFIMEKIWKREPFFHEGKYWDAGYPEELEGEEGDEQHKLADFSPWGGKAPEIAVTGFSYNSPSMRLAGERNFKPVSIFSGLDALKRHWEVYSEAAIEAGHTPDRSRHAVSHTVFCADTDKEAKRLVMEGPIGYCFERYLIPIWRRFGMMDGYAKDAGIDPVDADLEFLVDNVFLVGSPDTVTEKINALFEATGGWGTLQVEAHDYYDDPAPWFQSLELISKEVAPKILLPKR

[2] = molecular target: T2, LuxAB luciferase (Aliivibrio fischeri, UniProt P19907); experiment: as above; type: biochemical; conditions: FMNH2 cosubstrate generated in situ from FMN and NADH, 1 mM ketone, pH 7.6, 25 °C
T2 construct: gene luxA; natively purified LuxAB luciferase, untagged; with Alkanal monooxygenase beta chain
T2 sequence (P19907 1-354): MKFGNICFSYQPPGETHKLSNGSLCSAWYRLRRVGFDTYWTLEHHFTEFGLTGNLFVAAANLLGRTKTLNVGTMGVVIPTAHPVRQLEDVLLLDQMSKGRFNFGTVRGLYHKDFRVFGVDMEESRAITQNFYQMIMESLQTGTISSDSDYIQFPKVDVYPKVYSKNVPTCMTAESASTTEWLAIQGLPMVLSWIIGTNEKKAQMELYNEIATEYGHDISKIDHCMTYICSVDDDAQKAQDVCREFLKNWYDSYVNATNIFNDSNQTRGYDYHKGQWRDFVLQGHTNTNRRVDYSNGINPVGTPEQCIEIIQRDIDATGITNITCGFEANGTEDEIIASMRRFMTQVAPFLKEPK
T2 sequence (P19908 1-326 partner): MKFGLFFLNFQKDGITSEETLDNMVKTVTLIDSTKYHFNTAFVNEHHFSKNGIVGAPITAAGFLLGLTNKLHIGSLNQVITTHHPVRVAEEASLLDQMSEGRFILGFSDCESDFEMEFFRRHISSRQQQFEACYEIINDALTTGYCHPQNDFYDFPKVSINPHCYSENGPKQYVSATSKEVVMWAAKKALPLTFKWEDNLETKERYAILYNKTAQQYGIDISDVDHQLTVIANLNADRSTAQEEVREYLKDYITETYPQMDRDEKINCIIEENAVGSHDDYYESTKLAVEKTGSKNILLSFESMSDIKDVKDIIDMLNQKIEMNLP

[3] = test system: Frp2; experiment: initial rate of FMN reduction by NADH at […] nm, single-enzyme, Michaelis-Menten; type: biochemical, Pseudomonas putida; conditions: co-substrate NADH, anaerobic; single-enzyme assay (S); read-out: Apparent KmFMN
[4] = test system: Frp1; experiment: as above; type: biochemical, Pseudomonas putida; conditions: co-substrate NADH, anaerobic; single-enzyme assay (S); read-out: Apparent KmFMN
[5] = substrate: Cc1cc2nc3c(=O)[nH]c(=O)nc-3n(C[C@H](O)[C@H](O)[C@H](O)COP(=O)(O)O)c2cc1C; experiment: purified protein; type: biochemical, Aliivibrio fischeri; conditions: co-substrate NADH, anaerobic; single-enzyme assay (S)

Molecule: Cc1cc2c(cc1C)N(C[C@H](O)[C@H](O)[C@H](O)COP(=O)(O)O)c1[nH]c(=O)[nH]c(=O)c1N2 [FMNH2]
- 120 min biotransformation with FMNH2 supplied by purified flavin reductases, GC [1]: can biooxygenate the bicyclic ketone by sourcing the requisite FMNH2 cosubstrate
- 120 min biotransformation with FMNH2 supplied by purified flavin reductases, GC [2]: can biooxygenate the bicyclic ketone by sourcing the requisite FMNH2 cosubstrate

- Km [3]: 4.2 µM
- Km [4]: 2.5 µM
Molecule: Cc1cc2nc3c(=O)[nH]c(=O)nc-3n(C[C@H](O)[C@H](O)[C@H](O)COP(=O)(O)O)c2cc1C [FMN]

B1: FRGVf (Aliivibrio fischeri) (protein)
chain: THPIIHDLENRYTSKKYDPSKKVSQEDLAVLLEALRLSASSINSQPWKFIVIESDAAKQRMHDSFANMHQFNQPHIKACSHVILFANKLSYTRDDYDVVLSKAVADKRITEEQKEAAFASFKFVELNCDENGEHKAWTKPQAYLALGNALHTLARLNIDSTTMEGIDPELLSEIFADELKGYECHVALAIGYHHPSEDYNASLPKSRKAFEDVITIL
- Km [5]: 4.3 µM

B2: FreVf (Aliivibrio fischeri) (protein)
chain: MPINCKVKSIEPLACNTFRILLHPEQPVAFKAGQYLTVVMGEKDKRPFSIASSPCRHEGEIELHIGAAEHNAYAGEVVESMKSALETGGDILIDAPHGEAWIREDSDRSMLLIAGGTGFSYVRSILDHCISQQIQKPIYLYWGGRDECQLYAKAELESIAQAHSHITFVPVVEKSEGWTGKTGNVLEAVKADFNSLADMDIYIAGRFEMAGAAREQFTTEKQAKKEQLFGDAFAFI
- Km [5]: 2.5 µM

Source: publication PMC9864536, “Inter-Species Redox Coupling by Flavin Reductases and FMN-Dependent Two-Component Monooxygenases Undertaking Nucleophilic Baeyer–Villiger Biooxygenations” (Microorganisms, 2022)
